According to US6737383B1, “Herbicidal oxadiazolidines” (priority 1999, dated 2004):

Experiments:
[1] = test system: bedstraw; assay: Test B pre/postemergence bedstraw; type: in vivo, Galium aparine; settings: Preemergence
Summary of the method: (§1)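 Test chemicals in a non-phytotoxic solvent mixture with surfactant were sprayed preemergence onto planted seeds and postemergence onto plants 2 to 18 cm tall (1- to 4-leaf stage). After twelve to sixteen days in a greenhouse, injury was visually rated against untreated controls from 0 (no effect) to 10 (complete control).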

[2] = test system: blackgrass; assay: Test B pre/postemergence blackgrass; type: in vivo, Alopecurus myosuroides
Summary of the method: as §1

[3] = test system: surinam grass; assay: Test B pre/postemergence surinam grass; type: in vivo, Brachiaria decumbens
Summary of the method: as §1

[4] = test system: cocklebur; assay: Test B pre/postemergence cocklebur; type: in vivo, Xanthium strumarium
Summary of the method: as §1

[5] = test system: giant foxtail; assay: Test B pre/postemergence giant foxtail; type: in vivo, Setaria faberii
Summary of the method: as §1

[6] = test system: morningglory; assay: Test B pre/postemergence morningglory; type: in vivo, Ipomoea hederacea
Summary of the method: as §1

[7] = test system: pigweed; assay: Test B pre/postemergence pigweed; type: in vivo, Amaranthus retroflexus
Summary of the method: as §1

[8] = test system: rape; assay: Test B pre/postemergence rape; type: in vivo, Brassica napus
Summary of the method: as §1

[9] = test system: soybean; assay: Test B pre/postemergence soybean; type: in vivo, Glycine max
Summary of the method: as §1

[10] = test system: velvetleaf; assay: Test B pre/postemergence velvetleaf; type: in vivo, Abutilon theophrasti
Summary of the method: as §1

[11] = test system: wheat; assay: Test B pre/postemergence wheat; type: in vivo, Triticum aestivum
Summary of the method: as §1

[12] = test system: wild oat; assay: Test B pre/postemergence wild oat; type: in vivo, Avena fatua
Summary of the method: as §1

[13] = test system: purple nutsedge; assay: Test B pre/postemergence purple nutsedge; type: in vivo, Cyperus rotundus
Summary of the method: as §1

[14] = test system: smallflower flatsedge; assay: Test B flood test smallflower flatsedge; type: in vivo, Cyperus difformis
Summary of the method: (§2)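 Plants were grown to the 2-leaf stage before treatment with test chemical, then held in a greenhouse for twelve to sixteen days. Injury was visually rated against untreated controls on a 0–10 scale, where 0 is no effect and 10 is complete control.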

[15] = test system: duck salad; assay: Test B flood test duck salad; type: in vivo, Heteranthera limosa
Summary of the method: as §2

[16] = test system: bamyardgrass; assay: Test B flood test barnyardgrass; type: in vivo, Echinochloa crus-galli
Summary of the method: as §2

[17] = Postemergence, Rate 62 g/ha, scale 0 to 10, 0 is no effect, 10 is complete control
[18] = Postemergence, Rate 125 g/ha, scale of 0 to 10 where 0 is no effect and 10 is complete control
[19] = Postemergence, Rate 250 g/ha, scale of 0 to 10, 0 is no effect, 10 is complete control
[20] = Preemergence, Rate 62 g/ha, scale of 0 to 10 where 0 is no effect and 10 is complete control
[21] = Preemergence, Rate 125 g/ha, scale of 0 to 10 where 0 is no effect and 10 is complete control
[22] = Preemergence, Rate 250 g/ha, scale 0 to 10 (0 no effect, 10 complete control)
[23] = Preemergence, Rate 500 g/ha, scale of 0 to 10 where 0 is no effect and 10 is complete control
[24] = Rate 500 g/ha, Postemergence, scale 0 to 10, 0 is no effect, 10 is complete control
[25] = Rate 62 g/ha, flood test species, Pre-emergence, visual evaluation after twelve to sixteen days
[26] = Rate 125 g/ha, under heading Pre-emergence, flood test species, visual evaluation after twelve to sixteen days
[27] = Rate 250 g/ha, Pre-emergence (flood test species), scale 0 to 10, 0 is no effect, 10 is complete control
[28] = Rate 500 g/ha, Pre-emergence section of Table B, 0 to 10 scale (0 no effect, 10 complete control)

C=C(Cn1c(=O)on(C(=O)N(c2ccccc2)C(C)C)c1=O)C(C)C [Compound 649]
Bedstraw plant response rating ([1]; Rate 62 g/ha, scale of 0 to 10 where 0 is no effect and 10 is complete control): 0 | Bedstraw plant response rating ([1]; Rate 125 g/ha, scale of 0 to 10 where 0 is no effect and 10 is complete control): 0 | Plant response rating, Bedstraw ([1]; Rate 250 g/ha, scale 0 to 10 (0 no effect, 10 complete control)): 0 | Plant response rating, Bedstraw ([1]; Rate 500 g/ha, scale of 0 to 10 where 0 is no effect and 10 is complete control): 0 | Plant response rating, Blackgrass [2, 17]: 0 | Blackgrass plant response rating [2, 18]: 0 | Blackgrass plant response rating [2, 19]: 0 | Blackgrass plant response rating [2, 20]: 0 | Blackgrass plant response rating [2, 21]: 0 | Plant response rating, Blackgrass [2, 22]: 0 | Plant response rating, Blackgrass [2, 23]: 0 | Blackgrass plant response rating [2, 24]: 0 | Plant response rating, B. signalgrass [3, 17]: 0 | Plant response rating, B. signalgrass [3, 18]: 0 | B. signalgrass plant response rating [3, 19]: 0 | B. signalgrass plant response rating [3, 20]: 0 | B. signalgrass plant response rating [3, 21]: 0 | Plant response rating, B. signalgrass [3, 22]: 0 | Plant response rating, B. signalgrass [3, 23]: 0 | B. signalgrass plant response rating [3, 24]: 0 | Plant response rating, Cocklebur [4, 17]: 0 | Cocklebur plant response rating [4, 18]: 0 | Cocklebur plant response rating [4, 19]: 0 | Cocklebur plant response rating [4, 20]: 0 | Cocklebur plant response rating [4, 21]: 0 | Plant response rating, Cocklebur [4, 22]: 0 | Plant response rating, Cocklebur [4, 23]: 0 | Cocklebur plant response rating [4, 24]: 2 | Plant response rating, Giant foxtail [5, 17]: 0 | Giant foxtail plant response rating [5, 18]: 2 | Giant foxtail plant response rating [5, 19]: 2 | Giant foxtail plant response rating [5, 20]: 0 | Plant response rating, Giant foxtail [5, 22]: 9 | Plant response rating, Giant foxtail [5, 23]: 9 | Giant foxtail plant response rating [5, 24]: 7 | Plant response rating, Morningglory [6, 17]: 4 | Morningglory plant response rating [6, 18]: 7 | Morningglory plant response rating [6, 19]: 7 | Morningglory plant response rating [6, 20]: 0 | Morningglory plant response rating [6, 21]: 0 | Plant response rating, Morningglory [6, 22]: 0 | Plant response rating, Morningglory [6, 23]: 0 | Morningglory plant response rating [6, 24]: 8 | Plant response rating, Redroot pigweed [7, 17]: 0 | Redroot pigweed plant response rating [7, 18]: 0 | Redroot pigweed plant response rating [7, 20]: 0 | Redroot pigweed plant response rating [7, 21]: 0 | Plant response rating, Redroot pigweed [7, 22]: 0 | Plant response rating, Redroot pigweed [7, 23]: 0 | Redroot pigweed plant response rating [7, 24]: 0 | Plant response rating, Rape [8, 17]: 0 | Rape plant response rating [8, 18]: 0 | Rape plant response rating [8, 20]: 0 | Rape plant response rating [8, 21]: 0 | Plant response rating, Rape [8, 22]: 0 | Plant response rating, Rape [8, 23]: 0 | Rape plant response rating [8, 24]: 0 | Plant response rating, Soybean [9, 17]: 2 | Soybean plant response rating [9, 18]: 2 | Soybean plant response rating [9, 20]: 0 | Soybean plant response rating [9, 21]: 0 | Plant response rating, Soybean [9, 22]: 0 | Plant response rating, Soybean [9, 23]: 0 | Soybean plant response rating [9, 24]: 3 | Plant response rating, Velvetleaf [10, 17]: 0 | Velvetleaf plant response rating [10, 18]: 0 | Velvetleaf plant response rating [10, 20]: 0 | Velvetleaf plant response rating [10, 21]: 0 | Plant response rating, Velvetleaf [10, 22]: 0 | Plant response rating, Velvetleaf [10, 23]: 0 | Velvetleaf plant response rating [10, 24]: 0 | Plant response rating, Wheat [11, 17]: 0 | Wheat plant response rating [11, 18]: 0 | Wheat plant response rating [11, 20]: 0 | Wheat plant response rating [11, 21]: 0 | Plant response rating, Wheat [11, 22]: 0 | Plant response rating, Wheat [11, 23]: 0 | Wheat plant response rating [11, 24]: 0 | Plant response rating, Wild oats [12, 17]: 0 | Wild oats plant response rating [12, 18]: 0 | Wild oats plant response rating [12, 20]: 0 | Wild oats plant response rating [12, 21]: 0 | Plant response rating, Wild oats [12, 22]: 0 | Plant response rating, Wild oats [12, 23]: 0 | Wild oats plant response rating [12, 24]: 0 | Plant response rating, Nutsedge [13, 17]: 0 | Nutsedge plant response rating [13, 18]: 0 | Nutsedge plant response rating [13, 20]: 0 | Nutsedge plant response rating [13, 21]: 0 | Plant response rating, Nutsedge [13, 22]: 0 | Plant response rating, Nutsedge [13, 23]: 0 | Nutsedge plant response rating [13, 24]: 0 | Plant response rating, S. Flatsedge (0 to 10 scale, 0 is no effect, 10 is complete control) [14, 25]: 0 | S. Flatsedge plant response rating (0 to 10 scale, 0 is no effect, 10 is complete control) [14, 26]: 0 | S. Flatsedge plant response rating [14, 27]: 0 | S. Flatsedge plant response rating [14, 28]: 0 | Plant response rating, Ducksalad (0 to 10 scale, 0 is no effect, 10 is complete control) [15, 25]: 0 | Ducksalad plant response rating (0 to 10 scale, 0 is no effect, 10 is complete control) [15, 26]: 0 | Ducksalad plant response rating [15, 27]: 0 | Ducksalad plant response rating [15, 28]: 0 | Plant response rating, Barnyardgrass (0 to 10 scale, 0 is no effect, 10 is complete control) [16, 25]: 0 | Barnyardgrass plant response rating (0 to 10 scale, 0 is no effect, 10 is complete control) [16, 26]: 0 | Barnyardgrass plant response rating [16, 27]: 0 | Barnyardgrass plant response rating [16, 28]: 2
